Laboratory results taken from patent US10472386B2, “Bile acid derivatives as FXR agonists and methods of use thereof” (priority 2017, dated 2019).

Target: T1, human FXR (NR1H4) (Homo sapiens, UniProt Q96RI1)
T1 sequence (Q96RI1 1-486): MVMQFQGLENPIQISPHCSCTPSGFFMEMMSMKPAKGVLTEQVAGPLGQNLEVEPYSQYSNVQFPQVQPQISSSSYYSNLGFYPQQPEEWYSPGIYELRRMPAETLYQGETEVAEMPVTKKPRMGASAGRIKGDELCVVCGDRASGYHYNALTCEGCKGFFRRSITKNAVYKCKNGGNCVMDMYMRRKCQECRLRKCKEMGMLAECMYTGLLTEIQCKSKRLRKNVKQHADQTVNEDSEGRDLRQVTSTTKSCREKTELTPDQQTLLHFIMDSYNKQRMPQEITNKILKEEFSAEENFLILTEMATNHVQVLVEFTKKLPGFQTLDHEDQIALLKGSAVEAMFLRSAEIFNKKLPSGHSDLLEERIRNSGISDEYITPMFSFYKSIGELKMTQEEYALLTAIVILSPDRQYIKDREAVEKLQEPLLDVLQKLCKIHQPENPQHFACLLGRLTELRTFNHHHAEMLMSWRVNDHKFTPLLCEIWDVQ
Experiment: Human FXR (NR1H4) Assay (Gal4 promoter driven luciferase reporter, Indigo Bioscience kit IB00601)
Assay type: cell-based
Conditions: FXR agonistic potency; CHO reporter cells expressing human NR1H4; 22 hours incubation; luciferase readout
Excerpt: Determination of a ligand mediated Gal4 promoter driven transactivation to quantify ligand binding mediated activation of FXR. FXR Reporter Assay kit purchased from Indigo Bioscience (Catalogue number: IB00601) to determine the potency and efficacy of compound developed by Enanta that can induce FXR activation. The principle application of this reporter assay system is to quantify functional activity of human FXR. The assay utilizes non-human mammalian cells, CHO (Chinese hamster ovary) cells engineered to express human NR1H4 protein (referred to as FXR). Reporter cells also incorporate the cDNA encoding beetle luciferase which catalyzes the substrates and yields photon emission. Luminescence intensity of the reaction is quantified using a plate-reading luminometer, Envision. Reporter Cells include the luciferase reporter gene functionally linked to an FXR responsive promoter. Thus, quantifying changes in luciferase expression in the treated reporter cells provides a sensitive surrogate measure of the changes in FXR activity. […] The assay is according to the manufacturer's instructions. In brief, the assay was performed in white, 96 well plates using final volume of 100 uL containing cells with different doses of compounds. Retrieve Reporter Cells from −80° C. storage. Perform a rapid thaw of the frozen cells by transferring a 10 ml volume of 37° C. cell recovery medium into the tube of frozen cells. Recap the tube of Reporter Cells and immediately place it in a 37° C. water bath for 5-10 minutes. Retrieve the tube of Reporter Cell Suspension from the water bath. Sanitize the outside surface of the tube with a 70% alcohol swab, and then transfer it into the cell culture hood. Dispense 90 μl of cell suspension into each well of the 96-well Assay Plate. Transfer the plate into 37° C. incubator, allowing the cells adherent to the bottom of the well. Dilute compounds in Dilution Plate (DP), and administrate to cells at Assay Plate (AP). DMSO content of the samples was kept at 0.2%. Cells were incubated for additional 22 hours before luciferase activities were measured. Thirty minutes before intending to quantify FXR activity, remove Detection Substrate and Detection Buffer from the refrigerator and place them in a low-light area so that they may equilibrate to room temperature. Remove the plate's lid and discard all media contents by ejecting it into an appropriate waste container. Gently tap the inverted plate onto a clean absorbent paper towel to remove residual droplets. Cells will remain tightly adhered to well bottoms. Add 100 μl of luciferase detection reagent to each well of the assay plate. Allow the assay plate to rest at room temperature for at least 5 minutes following the addition of LDR. Set the instrument (Envision) to perform a single 5 second “plate shake” prior to reading the first assay well. Read time may be 0.5 second (500 mSec) per well.

| SMILES | EC50 [nM] |
| --- | --- |
| CC[C@H]1[C@@H](O)[C@@H]2[C@H](CC[C@]3(C)[C@@H]([C@H](C)COC(=O)NS(=O)(=O)c4ccc(O)cc4)CC[C@@H]23)[C@@]2(C)CC[C@@H](O)C[C@@H]12 [Example 26] | > 100 |
| CC[C@H]1[C@@H](O)[C@@H]2[C@H](CC[C@]3(C)[C@@H]([C@H](C)COC(=O)NS(=O)(=O)c4cc(C)c(OC(C)C)c(C)c4)CC[C@@H]23)[C@@]2(C)CC[C@@H](O)C[C@@H]12 [Example 18] | < 1 |
| CC[C@H]1[C@@H](O)[C@@H]2[C@H](CC[C@]3(C)[C@@H]([C@H](C)COC(=O)NS(=O)(=O)c4ccc(OC(C)C)cc4)CC[C@@H]23)[C@@]2(C)CC[C@@H](O)C[C@@H]12 [Example 4] | < 1 |
| CC[C@H]1[C@@H](O)[C@@H]2[C@H](CC[C@]3(C)[C@@H]([C@H](C)COC(=O)NS(=O)(=O)c4ccc(OC)cc4)CC[C@@H]23)[C@@]2(C)CC[C@@H](O)C[C@@H]12 [Example 27] | 1 to 10 |
| CC[C@H]1[C@@H](O)[C@@H]2[C@H](CC[C@]3(C)[C@@H]([C@H](C)COC(=O)NS(=O)(=O)c4ccc(OC5CC5)cc4)CC[C@@H]23)[C@@]2(C)CC[C@@H](O)C[C@@H]12 [Example 7] | < 1 |
| CCC(CC)Oc1ccc(S(=O)(=O)NC(=O)OC[C@@H](C)[C@H]2CC[C@H]3[C@@H]4[C@H](O)[C@H](CC)[C@@H]5C[C@H](O)CC[C@]5(C)[C@H]4CC[C@]23C)cc1 [Example 19] | 10 to 100 |
| CC[C@H]1[C@@H](O)[C@@H]2[C@H](C[C@H](O)[C@]3(C)[C@@H]([C@H](C)COC(=O)NS(=O)(=O)c4ccc5c(c4)CCC(C)(C)O5)CC[C@@H]23)[C@@]2(C)CC[C@@H](O)C[C@@H]12 [Example 32] | > 100 |
| CC[C@H]1[C@@H](O)[C@@H]2[C@H](CC[C@]3(C)[C@@H]([C@H](C)COC(=O)NS(=O)(=O)c4ccc(OC(F)(F)F)cc4)CC[C@@H]23)[C@@]2(C)CC[C@@H](O)C[C@@H]12 [Example 23] | > 100 |
| CCOc1ccc(S(=O)(=O)NC(=O)OC[C@@H](C)[C@H]2CC[C@H]3[C@@H]4[C@H](O)[C@H](CC)[C@@H]5C[C@H](O)CC[C@]5(C)[C@H]4CC[C@]23C)cc1 [Example 14] | < 1 |
| CC[C@H]1[C@@H](O)[C@@H]2[C@H](CC[C@]3(C)[C@@H]([C@H](C)COC(=O)NS(=O)(=O)c4ccc(Oc5ccccc5)cc4)CC[C@@H]23)[C@@]2(C)CC[C@@H](O)C[C@@H]12 [Example 25] | > 100 |
| CC(C)Oc1ccc(S(=O)(=O)NC(=O)OC[C@@H](C)[C@H]2CC[C@H]3[C@@H]4[C@H](O)C[C@@H]5C[C@H](O)CC[C@]5(C)[C@H]4CC[C@]23C)cc1 [Example 3] | > 100 |
| CC[C@H]1[C@@H](O)[C@@H]2[C@H](CC[C@]3(C)[C@@H]([C@H](C)COC(=O)NS(=O)(=O)c4ccc(O[C@@H](C)CC)cc4)CC[C@@H]23)[C@@]2(C)CC[C@@H](O)C[C@@H]12 [Example 16] | < 1 |
| CC[C@H]1[C@@H](O)[C@@H]2[C@H](CC[C@]3(C)[C@@H]([C@H](C)COC(=O)NS(=O)(=O)c4ccc(OCC(C)(C)C)cc4)CC[C@@H]23)[C@@]2(C)CC[C@@H](O)C[C@@H]12 [Example 20] | 1 to 10 |
| CC[C@H]1[C@@H](O)[C@@H]2[C@H](CC[C@]3(C)[C@@H]([C@H](C)COC(=O)NS(=O)(=O)c4ccc(OC5(C)CCCCC5)cc4)CC[C@@H]23)[C@@]2(C)CC[C@@H](O)C[C@@H]12 [Example 12] | < 1 |
| CC[C@H]1[C@@H](O)[C@@H]2[C@H](C[C@H](O)[C@]3(C)[C@@H]([C@H](C)COC(=O)NS(=O)(=O)c4ccc(OC(C)C)cc4)CC[C@@H]23)[C@@]2(C)CC[C@@H](O)C[C@@H]12 [Example 31] | > 100 |
| CC[C@H]1[C@@H](O)[C@@H]2[C@H](CC[C@]3(C)[C@@H]([C@H](C)COC(=O)NS(=O)(=O)c4ccc(OC5CCC5)cc4)CC[C@@H]23)[C@@]2(C)CC[C@@H](O)C[C@@H]12 [Example 8] | < 1 |
| CC[C@H]1[C@@H](O)[C@@H]2[C@H](CC[C@]3(C)[C@@H]([C@H](C)COC(=O)NS(=O)(=O)c4ccc(OC(C)(C)C)cn4)CC[C@@H]23)[C@@]2(C)CC[C@@H](O)C[C@@H]12 [Example 22] | < 1 |
| CC[C@H]1[C@@H](O)[C@@H]2[C@H](CC[C@]3(C)[C@@H]([C@H](C)COC(=O)NS(=O)(=O)c4ccc(OC(C)C)c(C)c4)CC[C@@H]23)[C@@]2(C)CC[C@@H](O)C[C@@H]12 [Example 13] | < 1 |
